Source: ChEMBL document CHEMBL1129590, “Tyrphostins. 6. Dimeric benzylidenemalononitrile tyrophostins: potent inhibitors of EGF receptor tyrosine kinase in vitro” (J Med Chem, 1996)
pIC50: −log10 of the molar value.

How the values were obtained:
[1] = target: T1, Epidermal growth factor receptor (Homo sapiens, UniProt P00533); assay: Inhibitory activity of compound against Epidermal growth factor receptor autophosphorylation
[2] = target: T1, Epidermal growth factor receptor; assay: Inhibition of epidermal growth factor receptor (EGFR) phosphorylation of the exogenous substrate poly(Glu6, Ala3,Tyr) (polyGAT)

T1 sequence (P00533 whole entry): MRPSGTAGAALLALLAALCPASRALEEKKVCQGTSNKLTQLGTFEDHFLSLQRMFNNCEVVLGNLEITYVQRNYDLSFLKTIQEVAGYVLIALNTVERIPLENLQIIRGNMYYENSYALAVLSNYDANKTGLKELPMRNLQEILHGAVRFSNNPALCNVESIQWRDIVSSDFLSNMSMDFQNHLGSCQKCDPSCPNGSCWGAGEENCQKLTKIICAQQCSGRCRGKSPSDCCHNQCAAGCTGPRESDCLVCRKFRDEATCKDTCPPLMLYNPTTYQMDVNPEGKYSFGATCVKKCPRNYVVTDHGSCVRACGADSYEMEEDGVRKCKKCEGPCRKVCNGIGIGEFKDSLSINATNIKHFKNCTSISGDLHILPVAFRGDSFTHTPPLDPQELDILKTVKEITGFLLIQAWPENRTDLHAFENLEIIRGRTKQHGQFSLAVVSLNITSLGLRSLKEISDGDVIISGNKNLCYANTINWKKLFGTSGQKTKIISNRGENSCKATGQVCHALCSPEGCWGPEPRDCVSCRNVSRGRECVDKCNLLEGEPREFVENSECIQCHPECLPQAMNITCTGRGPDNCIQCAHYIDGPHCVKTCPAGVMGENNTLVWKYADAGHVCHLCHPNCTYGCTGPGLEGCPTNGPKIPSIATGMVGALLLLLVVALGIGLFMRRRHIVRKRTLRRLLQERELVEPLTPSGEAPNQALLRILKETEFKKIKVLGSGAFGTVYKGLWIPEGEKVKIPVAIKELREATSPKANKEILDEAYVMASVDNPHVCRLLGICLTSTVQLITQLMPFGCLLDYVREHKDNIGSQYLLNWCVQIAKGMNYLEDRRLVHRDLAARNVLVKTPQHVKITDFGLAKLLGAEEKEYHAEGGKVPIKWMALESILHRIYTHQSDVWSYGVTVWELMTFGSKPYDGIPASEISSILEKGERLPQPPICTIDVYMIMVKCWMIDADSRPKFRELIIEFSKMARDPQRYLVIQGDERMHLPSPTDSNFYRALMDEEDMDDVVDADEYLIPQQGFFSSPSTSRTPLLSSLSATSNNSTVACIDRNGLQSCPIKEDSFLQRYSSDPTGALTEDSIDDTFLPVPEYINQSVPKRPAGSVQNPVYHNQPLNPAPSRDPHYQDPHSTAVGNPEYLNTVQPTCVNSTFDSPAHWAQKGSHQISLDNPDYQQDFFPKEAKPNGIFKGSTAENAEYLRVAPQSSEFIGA

Row | Structure (SMILES) | pIC50 [1] | pIC50 [2]
1 | N#C/C(=C\c1ccc(O)c(O)c1)C(=O)NCCCCNC(=O)/C(C#N)=C/c1ccc(O)c(O)c1 | 5.37 | 6.22
2 | COc1cc(/C=C(\C#N)C(=O)NCCCCNC(=O)/C(C#N)=C/c2cc(Br)c(O)c(OC)c2)cc(Br)c1O | 3.99 | –
3 | N#C/C(=C\c1ccc2[nH]ccc2c1)C(=O)NCCCNC(=O)/C(C#N)=C/c1ccc2[nH]ccc2c1 | < 4.00 | < 4.00
4 | N#C/C(=C\c1cc(O)c(O)c(Br)c1)C(=O)NCCCNC(=O)/C(C#N)=C/c1cc(O)c(O)c(Br)c1 | 5.41 | 6.47
5 | N#C/C(=C\c1ccc(O)c(O)c1)C(=O)NCCNC(=O)/C(C#N)=C/c1ccc(O)c(O)c1 | 3.95 | 6.30
6 | N#C/C(=C\c1ccc(O)c(O)c1)C(=O)NC1CCCC[C@@H]1NC(=O)/C(C#N)=C/c1ccc(O)c(O)c1 (some centres not stated) | 4.87 | 5.68
7 | N#C/C(=C\c1ccc(O)c(O)c1)C(=O)NCCCCCCNC(=O)/C(C#N)=C/c1ccc(O)c(O)c1 | 4.96 | 6.15
8 | N#C/C(=C\c1cc(O)c(O)c(Br)c1)S(=O)(=O)/C(C#N)=C/c1cc(O)c(O)c(Br)c1 | 5.85 | 6.07
9 | N#C/C(=C\c1ccc(O)c(O)c1)C(=O)NCC1CCCC(CNC(=O)/C(C#N)=C/c2ccc(O)c(O)c2)C1 (configuration not stated) | < 4.00 | 5.74
10 | N#C/C(=C\c1ccc(O)c(O)c1)C(=O)NCCN1CCN(C(=O)/C(C#N)=C/c2ccc(O)c(O)c2)CC1 | 5.00 | 5.66
11 | COc1cc(/C=C(\C#N)C(=O)NCCCCNC(=O)/C(C#N)=C/c2cc(OC)c(O)c([N+](=O)[O-])c2)cc([N+](=O)[O-])c1O | 4.72 | 3.95
12 | N#C/C(=C\c1ccc(O)c(O)c1)C(=O)NCCCN1CCN(CCCNC(=O)/C(C#N)=C/c2ccc(O)c(O)c2)CC1 | < 3.78 | –
13 | N#C/C(=C\c1ccc(O)c(O)c1)C(=O)NCCCCCCCCCCNC(=O)/C(C#N)=C/c1ccc(O)c(O)c1 | < 4.00 | 5.89
14 | N#C/C(=C\c1cc(O)c(O)c(O)c1)C(=O)NCCCCNC(=O)/C(C#N)=C/c1cc(O)c(O)c(O)c1 | 4.68 | 6.22
15 | N#C/C(=C\c1ccc(O)c(O)c1)C(=O)N1CCN(C(=O)/C(C#N)=C/c2ccc(O)c(O)c2)CC1 | 4.60 | 5.40
16 | N#C/C(=C\c1ccc(O)c(O)c1)C(=O)NCCCCCNC(=O)/C(C#N)=C/c1ccc(O)c(O)c1 | 4.70 | 6.15
17 | N#C/C(=C\c1ccc(O)c(O)c1)C(=O)NCN1CCN(C(=O)/C(C#N)=C/c2ccc(O)c(O)c2)CC1 | < 4.08 | –
18 | N#C/C(=C\c1cc(O)c(O)c([N+](=O)[O-])c1)C(=O)NCCCNC(=O)/C(C#N)=C/c1cc(O)c(O)c([N+](=O)[O-])c1 | < 4.00 | –
19 | N#C/C(=C\c1ccc(O)c(O)c1)S(=O)(=O)/C(C#N)=C/c1ccc(O)c(O)c1 | 4.92 | 6.42
20 | N#C/C(=C\c1ccc(O)c(O)c1)C(=O)NCc1cccc(CNC(=O)/C(C#N)=C/c2ccc(O)c(O)c2)c1 | 4.99 | 5.80
21 | N#C/C(=C\c1ccc(O)c(O)c1)C(=O)NC1CCC(CC2CCC(NC(=O)/C(C#N)=C/c3ccc(O)c(O)c3)CC2)CC1 (configuration not stated) | < 4.08 | –
